Assay: Effect of gamma irradiation on paclitaxel stability in various compositions (paclitaxel assay before and after irradiation)
Type: physicochemical
Description: Paclitaxel either as a powder or in solution in different solvents such as DMA, PEG 400, DMA:PEG 400 (25:75% w/w) and in a polymer solution in DMA:PEG 400 (25:75% w/w) was subjected to gamma irradiation sterilization at a dose of 25 KGy and analyzed for paclitaxel content before and after irradiation.

Assay WRT initial, % (percentage remaining after treatment) (after gamma irradiation at 25 KGy): 94.74%
Assay, % Post-irradiation (paclitaxel content after gamma irradiation at 25 KGy): 94.74 ± 2.36%
Assay, % Initial (paclitaxel content before gamma irradiation): 100%
Structure (SMILES): CC(=O)O[C@H]1C(=O)[C@@]2(C)[C@H]([C@H](OC(=O)c3ccccc3)[C@]3(O)C[C@H](OC(=O)[C@H](O)[C@@H](NC(=O)c4ccccc4)c4ccccc4)C(C)=C1C3(C)C)[C@]1(OC(C)=O)CO[C@@H]1C[C@@H]2O [Paclitaxel]

From patent US20070003626A1, “Sterile in-situ microcarrier forming gelled polymeric dispersions and processes to manufacture the same” (priority 2004, published 2007)
